In patent EP1059033A1, “INDUSTRIAL ANTIBACTERIAL/ANTIFUNGAL AGENTS, ALGICIDES AND ANTI-BIOLOGICAL ADHESION AGENTS CONTAINING BENZYLAMINES” (Nissan Chemical Industries, Ltd., priority 1998, dated 1999):
Values after ≈ are worked out from the molar mass of the structure shown. Read-outs that look alike come from different tables or passages of the source.

Columns and labels:
Format in all cases: cell-based
[1] = system: Trichophyton mentagrophytes; conditions: 72 h, 100 ppm
Method: 31.3 ml of Trichophyton mentagrophytes to be tested was added to 125 ml of a potato dextrose agar culture medium (Nissui Seiyaku Co.). The medium was stirred not to foam the solutions, poured into plates uniformly and solidified.
Thereafter, predetermined amounts of the compounds of the invention were weighted and diluted with acetone to predetermined concentrations.
Paper disks were impregnated with samples containing predetermined amounts of the compounds of the invention, laid on a filter, dried with air and placed on a plate containing test microbe at equal intervals.
Trichophyton mentagrophytes was cultured at 28 °C for 3 days in a thermostatic chamber and the diameter of each inhibiting zone was measured to evaluate the activity of each compound. Symbols in the table mean the followings; • A: Trichophyton mentagrophytes, • ++: strongly inhibiting zone (equal to or more than 21 mm) is observed, • +: inhibiting zone (10 to 20 mm) is observed, • -: no inhibiting zone is observed.

[2] = system: freshwater green alga (Scenedesmus pannonicus); test: Inhibition of propagation of freshwater algae (Example 6); conditions: Desmodesmus pannonicus, 500ppb
Method: (§1) A predetermined amount each of the compounds of the invention was dissolved in a culture medium containing 10^5 /ml of a freshwater alga at a logarithmic growth phase to prepare samples having a concentration of the compound of the invention in the medium of 500 ppb and 50 ppb respectively. A shaking culture at 100 rpm was performed for […] under continuous illumination at 20±2 °C for freshwater diatom and at 23±2 °C for other algae.
(§2) After 72 hours and 168 hours, the […] of cells was measured using a hemacytometer to obtain propagation rate. The propagation inhibiting rate was calculated from comparison with the non-treated lot. Symbols in the tables mean the followings; • A: freshwater green alga (Chlorella pyrenoidosa), • B: freshwater blue-green alga (Microcystis aeruginosa), • C: freshwater diatom (Diatoma elongatum), • D: freshwater green alga (Scenedesmus pannonicus).

Aspergillus niger = test: Agar dilution MIC (Example 3); conditions: 168 h, agar plate, 27 °C, 7 days
Method: (§3) Series of diluted samples (20000, 10000, 5000, 2500, 1250, 625, 313, 156, 78, 39 mg/l) of the compounds of the invention were prepared using dimethylsulfoxide. A sensitive culture medium-N (Nissui Seiyaku Co.) was used for bacteria and a potato dextrose agar culture medium (Nissui Seiyaku Co.) was used for fungi. 0.5 ml of each sample was added to and mixed with 9.5 ml of the culture medium, poured into a Petri dish and solidified to obtain a plate. As a result, the concentration of the compounds of the invention in the agar culture medium were 1000, 500, 250, 125, 62.5, 31.3, 15.6, 7.8, 3.9, 2.0 mg/l. The bacterium inoculated were cultured in a bouillon for the assay of sensitivity (Nissui Seiyaku Co.) at 37 °C for 20 hours, and the fungi were cultured in the potato dextrose agar culture medium (Nissui Seiyaku Co.) for 10 days and then a 10^6 CFU/ml suspension was prepared from each of them. A test bacteria or fungi suspension was streaked on an agar plate containing the compound of the present invention with platinum wire loop, and the agar plate was cultured at 37±1 °C for 18 to 20 hours for bacteria or at 27 °C for 7 days for fungi. A concentration at which no growth was seen was taken as minimum inhibitory concentration (MIC). Symbols in the tables mean the followings; • A: Bacillus subtilis, • B: Trichophyton mentagrophytes, • C: Staphylococcus aureus, • D: Aspergillus niger, • E: Penicillium funiculosum, • F: Candida albicans, • G: Micrococcus luteus, • H: Corynebacterium aquaticum, • I: Chaetomium globosum, • J: Fusarium moniliforme, • K: Saccharomyces cerevisiae, • L: Rhodotorula rubra, • M: Cladosporium cladosporioides, • N: Alternaria alternata.

Fusarium moniliforme = test: Agar dilution MIC (Example 3); conditions: Fusarium verticillioides, 168 h, agar plate, 27 °C, 7 days
Method: as §3

[3] = system: Corynebacterium aquaticum; test: Agar dilution MIC (Example 3); conditions: Leifsonia aquatica, agar plate, 37±1 °C, 18 to 20 hours
Method: as §3

Penicillium funiculosum = test: Agar dilution MIC (Example 3); conditions: Talaromyces funiculosus, 168 h, agar plate, 27 °C, 7 days
Method: as §3

Saccharomyces cerevisiae = test: Agar dilution MIC (Example 3); conditions: 168 h, agar plate, 27 °C, 7 days
Method: as §3

Rhodotorula rubra = test: Agar dilution MIC (Example 3); conditions: 168 h, agar plate, 27 °C, 7 days
Method: as §3

[4] = system: Cladosporium cladosporioides; test: Agar dilution MIC (Example 3); conditions: 168 h, agar plate, 27 °C, 7 days
Method: as §3

[5] = system: Trichophyton mentagrophytes; test: Agar dilution MIC (Example 3); conditions: 168 h, agar plate, 27 °C, 7 days
Method: as §3

Chaetomium globosum = test: Agar dilution MIC (Example 3); conditions: 168 h, agar plate, 27 °C, 7 days
Method: as §3

[6] = system: freshwater green alga (Selenastrum capricornutum); test: Inhibition of propagation of freshwater green alga (Example 4); conditions: after 72 hours, cell number vs non-treated lot; for inhibition at 0.05 ppm: 50ppb, read-out: Propagation inhibiting rate(%) 50ppb; for inhibition at 0.5 ppm: 500ppb, read-out: Propagation inhibiting rate(%) 500ppb
Method: A predetermined amount of each of the compounds of the invention was dissolved in a culture medium containing 10^5 /ml of a freshwater green alga (Selenastrum capricornutum) at a logarithmic growth phase to prepare samples having a concentration of the compound of the invention in the medium of 500 ppb and 50ppb respectively. The samples were stationary cultured at 23±1 °C for […] under continuous illumination.
After 72 hours, the number of cells was measured using a hemacytometer to obtain propagation rate. The propagation inhibiting rate was calculated from comparison with the non-treated lot.

[7] = system: freshwater green alga (Chlorella pyrenoidosa); test: Inhibition of propagation of freshwater algae (Example 6); conditions: Auxenochlorella pyrenoidosa, 500ppb
Method: as §1, §2

[8] = system: Trichophyton mentagrophytes; test: Agar dilution MIC (Example 2); conditions: 168 h, agar plate, 27 °C, 7 days
Method: (§4) Series of diluted samples (20000, 10000, 5000, 2500, 2000, 1250, 625, 313, 156, 78, 39, 20, 10, 5, 2.5, 1.25 mg/l) of the compounds of the invention were prepared using dimethylsulfoxide. A sensitive culture medium-N (Nissui Seiyaku Co.) was used for bacteria and a potato dextrose agar culture medium (Nissui Seiyaku Co.) was used for fungi. 0.5 ml of each sample was added to and mixed with 9.5 ml of the culture medium, poured into a Petri dish and solidified to obtain a plate. As a result, the concentration of the compounds of the invention in the agar culture medium were 1000, 500, 250, 125, 100, 62.5, 31.3, 15.6, 7.8, 3.9, 2.0, 1.0, 0.5, 0.25, 0.125, 0.062 mg/l. The bacterium inoculated were cultured in a bouillon for the assay of sensitivity (Nissui Seiyaku Co.) at 37 °C for 20 hours, and the fungi were cultured in the potato dextrose agar culture medium (Nissui Seiyaku Co.) for 10 days and then a 10^6 CFU/ml suspension was prepared from each of them. A test bacteria or fungi suspension was streaked on an agar plate containing the compound of the present invention with platinum wire loop, and the agar plate was cultured at 37±1 °C for 18 to 20 hours for bacteria or at 27 °C for 7 days for fungi. A concentration at which no growth was seen was taken as minimum inhibitory concentration [MIC(mg/l)]. Symbols in the table mean the followings; • A: Bacillus subtilis, • B: Trichophyton mentagrophytes, • C: Rhodotorula mucilaginosa.

[9] = system: freshwater diatom (Diatoma elongatum); test: Inhibition of propagation of freshwater algae (Example 6); conditions: Diatoma tenuis; for inhibition at 0.05 ppm: 50ppb; for inhibition at 0.5 ppm: 500ppb
Method: as §1, §2

[10] = system: freshwater blue-green alga (Microcystis aeruginosa); test: as above; conditions: 500ppb
Method: as §1, §2

Rhodotorula mucilaginosa = test: Agar dilution MIC (Example 2); conditions: 168 h, agar plate, 27 °C, 7 days
Method: as §4

[11] = system: seawater diatom [Nitzschia closterium]; test: Inhibition of propagation of seawater diatom (Example 5); conditions: Cylindrotheca closterium, 72 h, read-out: Propagation inhibiting rate(%) 500ppb
Method: A predetermined amount of each of the compounds of the invention was dissolved in culture media containing 10^5 /ml of a seawater diatom [Nitzschia closterium] at a logarithmic growth phase to prepare samples having a concentration of the compound in the medium of 500 ppb. The samples were stationary cultured at 22±1 °C for […] under continuous illumination.
After 72 hours, cells were collected by centrifugation and disrupted by addition of methanol to extract chlorophyll, and the amount of chlorophyll was measured from absorbance using a spectrophotometer to obtain propagation rate. The propagation inhibiting rate was calculated from comparison with the non-treated lot.

[12] = 72hr, read-out: Propagation inhibiting rate (%) 500ppb 72hr
[13] = 168hr, read-out: Propagation inhibiting rate (%) 500ppb 168hr
[14] = 168hr, read-out: Propagation inhibiting rate(%) 500ppb 168hr
[15] = 72hr, read-out: Propagation inhibiting rate(%) 50ppb 72hr
[16] = 168hr, read-out: Propagation inhibiting rate(%) 50ppb 168hr
[17] = 72hr, read-out: Propagation inhibiting rate(%) 500ppb 72hr

Structure (SMILES)	MIC [3] [µg/mL]	MIC (Saccharomyces cerevisiae) [µg/mL]	MIC [4] [µg/mL]	MIC [8] [µg/mL]	MIC (Rhodotorula mucilaginosa) [µg/mL]	Judgment (Target bacteria: A) [1]	inhibition at 0.5 ppm [2, 13] [%]	inhibition at 0.05 ppm [6] [%]	inhibition at 0.5 ppm [6] [%]	further results
Cc1cc(C)cc(CN(C)Cc2ccc(C(C)(C)C)cc2)c1 [Compound 2]	31.3 (≈ 106 µM)	63 (≈ 213 µM)	125 (≈ 423 µM)			++ (strongly inhibiting zone (equal to or more than 21 mm) is observed)	99	84	96	inhibition at 0.5 ppm [2, 12]: 91%; MIC (Aspergillus niger): 125 µg/mL (≈ 423 µM); MIC (Fusarium moniliforme): 63 µg/mL (≈ 213 µM); MIC (Penicillium funiculosum): 31.3 µg/mL (≈ 106 µM); MIC (Rhodotorula rubra): 125 µg/mL (≈ 423 µM); MIC [5]: < 2 µg/mL; MIC (Chaetomium globosum): 31.3 µg/mL (≈ 106 µM)
CN(Cc1ccc(C(C)(C)C)cc1)C1CCCc2ccccc21 (stereo not drawn) [Compound 6]	15.6 (≈ 50.7 µM)	31.3 (≈ 102 µM)	125 (≈ 407 µM)	< 0.062		++ (strongly inhibiting zone (equal to or more than 21 mm) is observed)			70	inhibition at 0.5 ppm [7, 14]: 79%
CC(c1ccccc1Cl)N(C)Cc1ccc(C(C)(C)C)cc1 (stereo not drawn) [Compound 9]				0.5 (≈ 1.58 µM)		++ (strongly inhibiting zone (equal to or more than 21 mm) is observed)	85	59	94	inhibition at 0.05 ppm [9, 15]: 88%; inhibition at 0.05 ppm [9, 16]: 94%; inhibition at 0.5 ppm [9, 17]: 76%; inhibition at 0.5 ppm [9, 14]: 100%; inhibition at 0.5 ppm [7, 17]: 70%; inhibition at 0.5 ppm [10, 17]: 97%; inhibition at 0.5 ppm [10, 14]: 98%
CN(Cc1ccc(Cl)cc1)Cc1cccc2ccccc12 [Compound 31]						+ (inhibiting zone (10 to 20 mm) is observed)	79	88	95	inhibition at 0.05 ppm [9, 15]: 61%; inhibition at 0.05 ppm [9, 16]: 87%; inhibition at 0.5 ppm [9, 17]: 81%; inhibition at 0.5 ppm [9, 14]: 95%; inhibition at 0.5 ppm [10, 17]: 90%; inhibition at 0.5 ppm [10, 14]: 100%
CC(C)(C)c1ccc(CNCc2ccc(Cl)c(Cl)c2)cc1 [Compound 34]				7.8 (≈ 24.2 µM)	62.5 (≈ 194 µM)				98	inhibition at 0.5 ppm [11]: 100%

Continued, in another order:

MIC [3] [µg/mL]	MIC (Saccharomyces cerevisiae) [µg/mL]	MIC [4] [µg/mL]	MIC [8] [µg/mL]	MIC (Rhodotorula mucilaginosa) [µg/mL]	Structure (SMILES)	Judgment (Target bacteria: A) [1]	inhibition at 0.5 ppm [2, 13] [%]	inhibition at 0.05 ppm [6] [%]	inhibition at 0.5 ppm [6] [%]	further results
31.3 (≈ 106 µM)	125 (≈ 423 µM)	125 (≈ 423 µM)	2 (≈ 6.77 µM)		Cc1ccc(CN(C)Cc2ccc(C(C)(C)C)cc2)cc1C [Compound 23]			65	97	MIC (Fusarium moniliforme): 125 µg/mL (≈ 423 µM); MIC (Penicillium funiculosum): 63 µg/mL (≈ 213 µM); MIC (Chaetomium globosum): 125 µg/mL (≈ 423 µM)
			< 0.062	15.6 (≈ 49.1 µM)	CN(Cc1ccc(C(C)(C)C)cc1)Cc1cccc2ccccc12 [Compound 30]	++ (strongly inhibiting zone (equal to or more than 21 mm) is observed)			94	
			< 1		CC(C)Cc1ccc(CN(C)Cc2cccc3ccccc23)cc1 [Compound 32]				86	inhibition at 0.5 ppm [2, 12]: 83%; inhibition at 0.5 ppm [7, 14]: 75%
			7.8 (≈ 22.2 µM)	7.8 (≈ 22.2 µM)	CN(Cc1ccc(C(C)(C)CCl)cc1)Cc1cccc2ccccc12 [Compound 35]			75	94	
			15.6 (≈ 49.3 µM)	62.5 (≈ 198 µM)	Clc1ccc(CNCc2cccc3ccccc23)cc1Cl [Compound 49]				97	inhibition at 0.5 ppm [11]: 100%
